Assay results as given in ChEMBL document CHEMBL1155687, “Anthoptilides A-E, new Briarane diterpenes from the Australian sea pen Anthoptilum cf. kukenthali” (J Nat Prod, 2000).

biological target: T1, Adenosine receptor A1 (Rattus norvegicus, UniProt P25099); assay: Displacement of [3H]DPCPX from adenosine A1 receptor in rat brain membrane; format: cell membranes
T1 sequence (P25099 whole entry): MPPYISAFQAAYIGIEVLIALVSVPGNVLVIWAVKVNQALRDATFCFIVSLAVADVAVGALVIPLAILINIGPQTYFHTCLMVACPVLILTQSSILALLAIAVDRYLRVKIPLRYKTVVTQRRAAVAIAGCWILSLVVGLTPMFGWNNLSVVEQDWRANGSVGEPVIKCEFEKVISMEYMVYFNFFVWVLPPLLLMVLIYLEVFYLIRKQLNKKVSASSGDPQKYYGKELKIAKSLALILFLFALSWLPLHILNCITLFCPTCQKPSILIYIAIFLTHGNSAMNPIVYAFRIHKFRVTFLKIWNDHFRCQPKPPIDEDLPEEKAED

SMILES | IC50 [µM]
C/C=C(\C)C(=O)O[C@@H]1CC/C(C)=C\[C@@H]2OC(=O)C(C)=C2C[C@H]2C(C)=CC(=O)[C@H](OC(C)=O)[C@]12C [ANTHOPTILIDE A] | 420
CC(=O)O[C@H]1C(=O)C=C(C)[C@@H]2CC3=C(C)C(=O)O[C@H]3/C=C(/C)CC[C@@H](OC(=O)C(C)C)[C@]21C [ANTHOPTILIDE B] | 45
CCC(=O)O[C@@H]1CC/C(C)=C\[C@@H]2OC(=O)C(C)=C2C[C@H]2C(C)=CC(=O)[C@H](OC(C)=O)[C@]12C [ANTHOPTILIDE C] | 3.1
CC(=O)O[C@H]1C(=O)C=C(C)[C@@H]2CC3=C(C)C(=O)O[C@H]3/C=C(/C)CC[C@@H](OC(=O)c3ccccc3)[C@]21C [ANTHOPTILIDE D] | 500
CCC(=O)O[C@@H]1CC/C(C)=C\[C@@H]2OC(=O)C(C)=C2C[C@H]2C(C)=C[C@H](OC(C)=O)[C@H](OC(C)=O)[C@]12C [ANTHOPTILIDE E] | 490
